Laboratory results reported in ChEMBL document CHEMBL4007427, “Inhibition of the Aldehyde Dehydrogenase 1/2 Family by Psoralen and Coumarin Derivatives” (J Med Chem, 2017).

Assays:
[1] = biological target: T1, Aldehyde dehydrogenase 1A1 (Homo sapiens, UniProt P00352)
T1 sequence (P00352 whole entry): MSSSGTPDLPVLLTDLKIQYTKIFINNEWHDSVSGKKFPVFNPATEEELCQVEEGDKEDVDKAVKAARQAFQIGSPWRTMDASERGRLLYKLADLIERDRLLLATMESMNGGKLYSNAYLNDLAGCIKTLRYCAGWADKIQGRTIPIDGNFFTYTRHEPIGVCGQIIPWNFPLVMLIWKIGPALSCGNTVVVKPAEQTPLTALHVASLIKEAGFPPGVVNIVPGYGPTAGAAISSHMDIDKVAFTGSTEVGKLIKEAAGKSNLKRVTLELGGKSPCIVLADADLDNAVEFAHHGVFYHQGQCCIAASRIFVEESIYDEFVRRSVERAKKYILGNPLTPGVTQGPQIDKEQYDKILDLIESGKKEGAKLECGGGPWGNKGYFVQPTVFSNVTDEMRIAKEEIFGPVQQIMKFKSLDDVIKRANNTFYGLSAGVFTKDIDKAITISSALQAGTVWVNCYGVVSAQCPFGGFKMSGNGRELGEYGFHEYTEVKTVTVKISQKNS
Description: (§3) Inhibition of full length recombinant human ALDH1A1 expressed in Escherichia coli BL21(DE3) assessed as reduction in dehydrogenase activity by measuring NAD(P)H level preincubated for 2 mins followed by addition of propionaldehyde as substrate in presence of NAD+ by spectrophotometric method

[2] = biological target: T2, Aldehyde dehydrogenase X, mitochondrial (Homo sapiens, UniProt P30837)
T2 sequence (P30837 whole entry): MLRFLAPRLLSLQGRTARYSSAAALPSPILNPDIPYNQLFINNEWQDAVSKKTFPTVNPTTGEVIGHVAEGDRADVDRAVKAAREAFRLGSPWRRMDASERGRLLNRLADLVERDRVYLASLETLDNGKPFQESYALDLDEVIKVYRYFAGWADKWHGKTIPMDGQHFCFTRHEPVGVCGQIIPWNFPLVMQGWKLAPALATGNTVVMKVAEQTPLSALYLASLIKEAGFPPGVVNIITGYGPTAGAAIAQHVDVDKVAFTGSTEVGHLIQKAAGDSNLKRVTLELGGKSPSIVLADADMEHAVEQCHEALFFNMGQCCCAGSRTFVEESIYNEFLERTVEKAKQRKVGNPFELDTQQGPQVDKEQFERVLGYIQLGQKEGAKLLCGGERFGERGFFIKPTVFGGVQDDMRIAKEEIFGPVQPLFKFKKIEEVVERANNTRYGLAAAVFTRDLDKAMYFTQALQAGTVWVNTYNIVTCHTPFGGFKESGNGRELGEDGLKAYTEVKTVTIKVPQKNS
Description: (§4) Inhibition of full length recombinant human ALDH1B1 expressed in Escherichia coli TunerDE3 assessed as reduction in dehydrogenase activity by measuring NAD(P)H level preincubated for 2 mins followed by addition of propionaldehyde as substrate in presence of NAD+ by spectrophotometric method

[3] = biological target: T3, Retinaldehyde dehydrogenase 3 (Homo sapiens, UniProt P47895)
T3 sequence (P47895 whole entry): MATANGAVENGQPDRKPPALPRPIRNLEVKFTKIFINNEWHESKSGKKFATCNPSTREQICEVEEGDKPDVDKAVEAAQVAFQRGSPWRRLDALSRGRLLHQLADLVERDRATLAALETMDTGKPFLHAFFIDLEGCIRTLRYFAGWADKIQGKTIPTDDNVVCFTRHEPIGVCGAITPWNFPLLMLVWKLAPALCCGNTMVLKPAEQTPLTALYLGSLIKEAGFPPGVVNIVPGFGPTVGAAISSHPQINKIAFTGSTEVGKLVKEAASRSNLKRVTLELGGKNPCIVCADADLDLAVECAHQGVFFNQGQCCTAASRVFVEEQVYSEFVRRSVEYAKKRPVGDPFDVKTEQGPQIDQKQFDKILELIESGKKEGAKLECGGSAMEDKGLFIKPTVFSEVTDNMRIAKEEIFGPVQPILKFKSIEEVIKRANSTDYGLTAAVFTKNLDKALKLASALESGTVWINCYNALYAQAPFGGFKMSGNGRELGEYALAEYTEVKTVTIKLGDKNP
Description: (§5) Inhibition of full length recombinant human ALDH1A3 expressed in Escherichia coli BL21(DE3) assessed as reduction in dehydrogenase activity by measuring NAD(P)H level preincubated for 2 mins followed by addition of propionaldehyde as substrate in presence of NAD+ by spectrophotometric method

Retinal dehydrogenase 2 = biological target: T4, Retinal dehydrogenase 2 (Homo sapiens, UniProt O94788)
T4 sequence (O94788 whole entry): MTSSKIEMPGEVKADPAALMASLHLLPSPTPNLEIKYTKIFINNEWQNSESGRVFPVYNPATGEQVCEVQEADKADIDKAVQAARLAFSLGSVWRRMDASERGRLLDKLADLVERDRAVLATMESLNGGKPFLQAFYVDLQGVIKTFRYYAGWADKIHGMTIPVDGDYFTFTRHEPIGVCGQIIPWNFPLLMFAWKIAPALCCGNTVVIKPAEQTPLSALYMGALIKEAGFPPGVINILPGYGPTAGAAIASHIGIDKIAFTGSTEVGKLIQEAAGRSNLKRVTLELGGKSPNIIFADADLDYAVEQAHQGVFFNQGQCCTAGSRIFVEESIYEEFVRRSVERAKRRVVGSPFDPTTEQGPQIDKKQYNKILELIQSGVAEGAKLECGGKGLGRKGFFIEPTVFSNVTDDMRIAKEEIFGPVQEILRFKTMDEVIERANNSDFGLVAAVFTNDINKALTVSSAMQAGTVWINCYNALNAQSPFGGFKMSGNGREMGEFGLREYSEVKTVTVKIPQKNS
Description: Inhibition of full length recombinant human ALDH1A2 expressed in Escherichia coli BL21(DE3) assessed as reduction in dehydrogenase activity by measuring NAD(P)H level preincubated for 2 mins followed by addition of propionaldehyde as substrate in presence of NAD+ by spectrophotometric method

[4] = biological target: T5, Cytosolic 10-formyltetrahydrofolate dehydrogenase (Rattus norvegicus, UniProt P28037); test: Inhibition of rat ALDH1L1 assessed as reduction in dehydrogenase activity by measuring NAD(P)H level preincubated for 2 mins followed by addition of propionaldehyde as substrate in presence of NAD+ by spectrophotometric method
T5 sequence (P28037 whole entry): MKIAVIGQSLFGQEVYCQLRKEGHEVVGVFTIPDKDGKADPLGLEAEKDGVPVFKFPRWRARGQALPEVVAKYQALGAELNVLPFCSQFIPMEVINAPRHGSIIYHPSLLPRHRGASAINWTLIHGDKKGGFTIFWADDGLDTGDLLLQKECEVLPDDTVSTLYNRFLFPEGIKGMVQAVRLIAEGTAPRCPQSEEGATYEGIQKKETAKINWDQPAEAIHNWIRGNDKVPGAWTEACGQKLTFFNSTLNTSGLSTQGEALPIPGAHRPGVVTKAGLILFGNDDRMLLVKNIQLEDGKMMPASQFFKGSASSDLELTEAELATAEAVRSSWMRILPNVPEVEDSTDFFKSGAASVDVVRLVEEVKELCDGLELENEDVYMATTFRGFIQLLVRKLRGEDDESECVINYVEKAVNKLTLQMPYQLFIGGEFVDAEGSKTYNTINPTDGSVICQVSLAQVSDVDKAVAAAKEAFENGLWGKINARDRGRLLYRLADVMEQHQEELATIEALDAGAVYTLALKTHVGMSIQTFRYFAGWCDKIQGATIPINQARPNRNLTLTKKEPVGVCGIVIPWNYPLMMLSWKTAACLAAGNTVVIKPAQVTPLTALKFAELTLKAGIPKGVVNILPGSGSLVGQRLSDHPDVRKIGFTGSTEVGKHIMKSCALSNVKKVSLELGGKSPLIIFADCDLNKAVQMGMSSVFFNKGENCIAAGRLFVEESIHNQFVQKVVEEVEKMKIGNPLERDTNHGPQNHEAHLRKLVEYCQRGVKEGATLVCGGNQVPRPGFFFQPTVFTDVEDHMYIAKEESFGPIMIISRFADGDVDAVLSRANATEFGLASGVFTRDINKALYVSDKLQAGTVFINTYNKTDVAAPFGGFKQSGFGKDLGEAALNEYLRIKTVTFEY

[5] = biological target: T6, Aldehyde dehydrogenase, dimeric NADP-preferring (Homo sapiens, UniProt P30838); test: (§1) Inhibition of full length recombinant human ALDH3A1 expressed in Escherichia coli BL21(DE3) assessed as reduction in dehydrogenase activity by measuring NAD(P)H level preincubated for 2 mins followed by addition of benzaldehyde as substrate in presence of NADP+ by spectrophotometric method
T6 sequence (P30838 whole entry): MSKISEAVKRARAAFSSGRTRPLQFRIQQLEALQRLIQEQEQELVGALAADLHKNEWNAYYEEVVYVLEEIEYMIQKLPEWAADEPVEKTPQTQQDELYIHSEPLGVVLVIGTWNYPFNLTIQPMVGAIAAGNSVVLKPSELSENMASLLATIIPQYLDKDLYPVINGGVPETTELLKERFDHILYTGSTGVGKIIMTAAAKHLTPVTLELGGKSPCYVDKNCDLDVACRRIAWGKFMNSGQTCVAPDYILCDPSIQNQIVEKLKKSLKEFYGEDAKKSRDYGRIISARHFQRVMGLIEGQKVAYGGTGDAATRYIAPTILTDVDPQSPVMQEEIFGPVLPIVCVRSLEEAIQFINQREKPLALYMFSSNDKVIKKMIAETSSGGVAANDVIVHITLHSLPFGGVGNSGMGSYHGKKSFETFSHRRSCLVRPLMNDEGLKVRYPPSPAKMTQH

[6] = biological target: T7, Aldehyde dehydrogenase 1A1 (Homo sapiens) (UniProt P00352); test: (§2) Inhibition of full length recombinant human ALDH1A1 expressed in Escherichia coli BL21(DE3) assessed as remaining dehydrogenase activity by measuring NAD(P)H level at 10 uM preincubated for 2 mins followed by addition of propionaldehyde as substrate in presence of NAD+ by spectrophotometric method
T7 sequence (whole entry): T1 sequence (P00352 whole entry)

[7] = Lipophilicity, log P of the compound; format: physicochemical; settings: octanol/water
[8] = biological target: T8, Aldehyde dehydrogenase, dimeric NADP-preferring (Homo sapiens) (UniProt P30838); test: as §1, with “method relative to control” for “method”
T8 sequence (whole entry): T6 sequence (P30838 whole entry)

[9] = biological target: T9, Aldehyde dehydrogenase, mitochondrial (Homo sapiens) (UniProt P05091); test: Inhibition of full length recombinant human ALDH2 expressed in Escherichia coli assessed as remaining dehydrogenase activity by measuring NAD(P)H level at 10 uM preincubated for 2 mins followed by addition of propionaldehyde as substrate in presence of NAD+ by spectrophotometric method
T9 sequence (whole entry): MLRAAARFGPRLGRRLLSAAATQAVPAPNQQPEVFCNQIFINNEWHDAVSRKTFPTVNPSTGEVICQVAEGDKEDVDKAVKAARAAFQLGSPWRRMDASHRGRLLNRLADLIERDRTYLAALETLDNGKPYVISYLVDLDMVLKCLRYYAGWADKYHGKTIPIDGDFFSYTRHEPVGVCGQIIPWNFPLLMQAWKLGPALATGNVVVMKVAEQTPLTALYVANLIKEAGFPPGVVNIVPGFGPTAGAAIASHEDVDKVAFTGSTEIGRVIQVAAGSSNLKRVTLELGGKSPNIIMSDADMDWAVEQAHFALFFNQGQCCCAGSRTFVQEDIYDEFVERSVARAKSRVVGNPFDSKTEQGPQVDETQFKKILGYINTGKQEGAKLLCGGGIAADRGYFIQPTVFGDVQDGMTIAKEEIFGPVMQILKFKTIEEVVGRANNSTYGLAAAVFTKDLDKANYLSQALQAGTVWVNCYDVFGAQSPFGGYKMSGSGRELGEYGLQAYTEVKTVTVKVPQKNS

[10] = biological target: T1, Aldehyde dehydrogenase 1A1; remark: listed apart in the source
Description: as §3

[11] = biological target: T10, Aldehyde dehydrogenase, mitochondrial (Homo sapiens, UniProt P05091)
T10 sequence (P05091 whole entry): T9 sequence (whole entry)
Description: (§6) Inhibition of full length recombinant human ALDH2 expressed in Escherichia coli assessed as reduction in dehydrogenase activity by measuring NAD(P)H level preincubated for 2 mins followed by addition of propionaldehyde as substrate in presence of NAD+ by spectrophotometric method

[12] = biological target: T8, Aldehyde dehydrogenase, dimeric NADP-preferring (Homo sapiens); test: Inhibition of full length recombinant human ALDH3A1 expressed in Escherichia coli BL21(DE3) assessed as remaining dehydrogenase activity by measuring NAD(P)H level at 10 uM preincubated for 2 mins followed by addition of propionaldehyde as substrate in presence of NAD+ by spectrophotometric method
[13] = biological target: T2, Aldehyde dehydrogenase X, mitochondrial; remark: listed apart in the source
Description: as §4

[14] = biological target: T1, Aldehyde dehydrogenase 1A1; remark: listed apart in the source
Description: Non-competitive inhibition of full length recombinant human ALDH1A1 expressed in Escherichia coli BL21(DE3) assessed as reduction in dehydrogenase activity by measuring NAD(P)H level using varying levels propionaldehyde in presence of NAD+ by Lineweaver-Burk plot analysis

[15] = biological target: T10, Aldehyde dehydrogenase, mitochondrial; remark: listed apart in the source
Description: as §6

[16] = biological target: T3, Retinaldehyde dehydrogenase 3; remark: listed apart in the source
Description: as §5

[17] = biological target: T1, Aldehyde dehydrogenase 1A1; remark: listed apart in the source
[18] = biological target: T10, Aldehyde dehydrogenase, mitochondrial; test: Mixed-type non-competitive inhibition of full length recombinant human ALDH2 expressed in Escherichia coli assessed as reduction in dehydrogenase activity using propionaldehyde as substrate in presence of varying levels NAD+ by Lineweaver-Burk plot analysis
[19] = biological target: T7, Aldehyde dehydrogenase 1A1 (Homo sapiens); test: as §2, with “reduction in” for “remaining”, “level” for “level at 10 uM”, “method relative to control” for “method”

O=c1c(-c2ccc(O)cc2)coc2cc(O[C@@H]3O[C@H](CO)[C@@H](O)[C@H](O)[C@H]3O)ccc12 [DAIDZIN]
IC50 [1]: > 200 µM
IC50 [2]: 5.1 µM
IC50 [3]: > 200 µM
IC50 (Retinal dehydrogenase 2): 4.5 µM
IC50 [4]: Not Active
IC50 [5]: Not Active

Cc1cc(=O)oc2cc3c(cc12)CCC(=O)O3
Activity [6]: 65.2%
logP [7]: 2.11
Imax [8]: 50 to 60%
Activity [9]: 25.5%
IC50 [10]: Not Active
IC50 [11]: 0.47 µM
Activity [12]: 53.6%
IC50 ([5]; read-out: IC50): 5.4 µM

CCN(CC)c1ccc2c(C)cc(=O)oc2c1
IC50 [13]: Not Active
IC50 [1]: 0.76 µM
Ki [14]: 1.2 µM
Activity [6]: 14.3%
logP [7]: 3.63
Activity [9]: 71.7%
IC50 [15]: Not Active
IC50 (Retinal dehydrogenase 2): > 10 µM
IC50 [16]: Not Active
Ki [17]: 0.87 µM
Activity [12]: 109%
IC50 [5]: Not Active

Cc1cc(=O)oc2cc(OCC#N)ccc12
Ki [14]: 6.9 µM
Activity [6]: 35.7%
logP [7]: 1.22
Ki [18]: 5.6 µM
Activity [9]: 41.3%
Activity [12]: 20.4%

Cc1c(Cc2ccccc2)c(=O)oc2cc(OS(C)(=O)=O)ccc12
IC50 [1]: 2.8 µM
IC50 [2]: 13 µM
Activity [6]: 24.6%
logP [7]: 3.44
Activity [9]: 99.7%
IC50 [3]: 10 µM
IC50 [15]: Not Active
IC50 (Retinal dehydrogenase 2): 11 µM
Activity [12]: 86.9%
IC50 [5]: Not Active

Cc1oc2cc3oc(=O)c4c(c3cc2c1C)CCCC4
IC50 [1]: 0.13 µM
IC50 [2]: 0.095 µM
Imax [19]: 50 to 60%
Activity [6]: 56.3%
logP [7]: 4.27
Activity [9]: 16.3%
IC50 (Retinal dehydrogenase 2): 0.065 µM
IC50 [16]: Not Active
IC50 [11]: 0.067 µM
Activity [12]: 94.1%
IC50 [5]: Not Active
